Measurements published in PMC10600239, “Selective MCL-1 inhibitor ABBV-467 is efficacious in tumor models but is associated with cardiac troponin increases in patients” (Communications Medicine, 2023).
Where “and” joins values, the source holds several entries; their conditions need not be identical. Equal values may be shown once.

Tested on: AMO-1 xenografts
Experiment: AMO-1 xenograft efficacy (tumor volume, body weight); for Mortality Observation Day 34: key: EUTV: Euthanized: tumor volume; for Mortality Observation Day 36: key: EUTV: Euthanized: tumor volume; for Mortality Observation Day 68, individual animal: key: EUTV: Euthanized: tumor volume
Assay type: in vivo, mouse
Description: All animal studies were conducted in accordance with the guidelines approved by the Institutional Animal Care and Use Committees of AbbVie. The research protocol was approved by In Vivo Pharmacology at AbbVie prior to study initiation but was not publicly registered or disclosed. Female C.B-17 SCID-beige mice (AMO-1, OPM-2, NCI-H929, and OCI-AML2 xenografts) and female NSG mice (MV4-11-Red.Fluc systemic) were purchased from Charles River Laboratories (Wilmington, MA). Animals were housed in a light cycle-controlled room with HEPA filtration at 22 °C. Animals had nesting and climbing cage topper as the primary environmental enrichment. Animals were inoculated subcutaneously in the right flank with 5 × 10^6 (AMO-1, OPM-2, NCI-H929, and OCI-AML2) or intravenous (IV) with 5 × 10^6 (MV4-11-Red.Fluc). The inoculation volume (0.2 mL) comprised a 50:50 mixture of cells in growth media and Matrigel (BD Biosciences) for subcutaneous injections and 100% phosphate-buffered saline for IV administration. All cell lines used in this publication were authenticated using IDEXX for STR profiling as well as their IMPACT and human IMPACT panels for pathogen screening. Electronic calipers were used to measure the length and width of each tumor 2 to 3 times per week. Tumor volume was estimated by applying the following equation: volume = length × width^2/2. All groups remained blinded during measurements and dosing; only veterinary staff were aware of group identity. When tumors reached approximately 200 mm^3, mice were randomized by match and distributed into treatment and control groups. All xenograft trials were conducted using 5 to 10 mice per group, and all mice were ear tagged and monitored individually throughout the studies. […] Tumor burden in the systemic MV4-11-Red.Fluc experiment was measured using an IVIS® spectrum from PerkinElmer by taking the total photon flux of the entire dorsal side of an individual mouse. […] A background control mouse that was tumor naive but received D-Luciferin was placed in the upper left corner of each image. The total flux from this animal was subtracted from the total flux of each animal present in the image.
For in vivo studies, maximal tumor growth inhibition (TGI) was calculated as the greatest treatment response using the following equation: Maximal TGI = (1 − mean tumor volume of the treated group/mean tumor volume of the vehicle control group) × 100. The tumor growth delay (TGD) percentage was determined as the percentage increase of the median time period for the treatment group to reach an arbitrary tumor volume of 1000 mm^3 relative to the vehicle control group. […] A power analysis was conducted using historical data to determine the number of animals required to yield significance of 0.05 at a 30% difference. […] Data from experiments in vivo were analyzed using the student’s t-test for TGI values and the Mann–Whitney U test for TGD using Excel and GraphPad Prism. Fisher’s exact test was used to probe significance of differences in response frequency.

[1] = 25 mg/kg Q7Dx2 IV, Day 53, SCID-beige female mice
[2] = 25 mg/kg Q7Dx2 IV, Day 60, SCID-beige female mice
[3] = 25 mg/kg Q7Dx2 IV, SCID-beige female mice, Day 21
[4] = 25 mg/kg Q7Dx2 IV, SCID-beige female mice, Day 24
[5] = 25 mg/kg Q7Dx2 IV, SCID-beige female mice, Day 26
[6] = 25 mg/kg Q7Dx2 IV, SCID-beige female mice, Day 28
[7] = 25 mg/kg Q7Dx2 IV, SCID-beige female mice, Day 34, surviving animals
[8] = 25 mg/kg Q7Dx2 IV, SCID-beige female mice, Day 43
[9] = 25 mg/kg Q7Dx2 IV, SCID-beige female mice, Day 50
[10] = 25 mg/kg Q7Dx2 IV, SCID-beige female mice, Day 55, remaining animals
[11] = 25 mg/kg Q7Dx2 IV, SCID-beige female mice, Day 62
[12] = 25 mg/kg Q7Dx2 IV, SCID-beige female mice, Day 64
[13] = 25 mg/kg Q7Dx2 IV, SCID-beige female mice, Day 68
[14] = 25 mg/kg Q7Dx2 IV, SCID-beige female mice, Day 68, surviving animals
[15] = 25 mg/kg Q7Dx2 IV, SCID-beige mice, Day 13 (measure date 10/25/2017, dosing begin 10/26/2017)

For `Cc1c(Cl)c2c(Cl)c(C)c1-c1c(-c3ccc(F)cc3)sc3ncnc(c13)O[C@@H](C(=O)O)Cc1cc(ccc1OCc1ccnc(-c3ccc(OC[C@H]4COCCO4)cc3)n1)OC[C@@H](CN1CCN(C)CC1)O2` [Compound A-1747745.0], the “Xenograft AMO-1 (DSMZ) (mm³) Day 34 Mean” value (6.25 mg/kg QDx1 IV, Day 34, group mean) was 1592.98 mm³, the “Xenograft AMO-1 (DSMZ) (mm³) Day 34 Median” value (6.25 mg/kg QDx1 IV, Day 34, group median) was 1465.20 mm³ and the “Mortality Observation Day 34” value (6.25 mg/kg QDx1 IV, Day 34, per animal) was “EUTV”. For the same compound, the “Xenograft AMO-1 (DSMZ) (mm³) Day 36 (individual animals)” value (6.25 mg/kg QDx1 IV, Day 36, SCID-beige female mice, tumor volume per animal (remaining animals)) was 1617 mm³ and 1642 mm³ and 1750 mm³ and 2010 mm³, the “Xenograft AMO-1 (DSMZ) (mm³) Day 36, Mean” value (6.25 mg/kg QDx1 IV, Day 36, group mean of remaining animals) was 1754.60 mm³ and the “Xenograft AMO-1 (DSMZ) (mm³) Day 36, Median” value (6.25 mg/kg QDx1 IV, Day 36, group median of remaining animals) was 1695.89 mm³. The “Mortality Observation Day 36” value (6.25 mg/kg QDx1 IV, Day 36, per animal) was “EUTV”, the “Mortality Observation Day 19” value (25 mg/kg Q7Dx2 IV, AMO-1 xenograft, SCID-beige female mice, individual animals) was “MORB” and the “% T/C (mean)” value (25 mg/kg Q7Dx2 IV, Day 13) was 102.38%. For the same compound, the “% T/C (median)” value (25 mg/kg Q7Dx2 IV, Day 13) was 100.76%, the “% T/C (mean)” value (25 mg/kg Q7Dx2 IV, Day 19) was 6.47% and the “% T/C (median)” value (25 mg/kg Q7Dx2 IV, Day 19) was 6.98%. The “% T/C (mean)” value (25 mg/kg Q7Dx2 IV, Day 21) was 4.61%, the “% T/C (median)” value (25 mg/kg Q7Dx2 IV, Day 21) was 4.91% and the “% T/C (mean)” value (25 mg/kg Q7Dx2 IV, Day 24) was 1.88%. The “% T/C (median)” value (25 mg/kg Q7Dx2 IV, Day 24) was 1.98%, the “% T/C (mean)” value (25 mg/kg Q7Dx2 IV, Day 26) was 1.29% and the “% T/C (median)” value (25 mg/kg Q7Dx2 IV, Day 26) was 1.46%. The “% T/C (mean)” value (25 mg/kg Q7Dx2 IV, Day 28) was 0.52%, the “% T/C (median)” value (25 mg/kg Q7Dx2 IV, Day 28) was 0.52% and the “Xenograft AMO-1 (DSMZ) (mm³) Day 53 (individual animals)” value [1] was 15 mm³. The “Xenograft AMO-1 (DSMZ) (mm³) Day 53 Mean” value [1] was 15.19 mm³, the “Xenograft AMO-1 (DSMZ) (mm³) Day 53 Median” value [1] was 15.19 mm³ and the “Xenograft AMO-1 (DSMZ) (mm³) Day 60 (individual animals)” value [2] was 155 mm³ and 71 mm³. The “Xenograft AMO-1 (DSMZ) (mm³) Day 60, Mean” value [2] was 112.89 mm³, the “Xenograft AMO-1 (DSMZ) (mm³) Day 60, Median” value [2] was 112.89 mm³ and the “Xenograft AMO-1 (DSMZ) Day 19 Mean” value (25 mg/kg Q7Dx2 IV, SCID-beige female mice, Day 19, group mean tumor volume) was 25.56 mm³. For the same compound, the “Xenograft AMO-1 (DSMZ) Day 19 Median” value (25 mg/kg Q7Dx2 IV, SCID-beige female mice, Day 19, group median tumor volume) was 25.56 mm³, the “Xenograft AMO-1 (DSMZ) (mm³) Day 19, individual animals” value (25 mg/kg Q7Dx2 IV, SCID-beige female mice, Day 19, individual tumor volumes) was 18 mm³ and 33 mm³ and MORB and the “Mortality Observation Day 21, individual animals” value [3] was “STOX (2×) and MORB (2×)”. The “Xenograft AMO-1 (DSMZ) Day 21, Mean” value [3] was 29.76 mm³, the “Xenograft AMO-1 (DSMZ) Day 21, Median” value [3] was 29.76 mm³ and the “Xenograft AMO-1 (DSMZ) tumor volume Day 21, individual animals” value [3] was 19 mm³ and 40 mm³. For the same compound, the “Xenograft AMO-1 (DSMZ) (mm³) Day 24, individual animals” value [4] was 17 mm³ and 19 mm³, the “Xenograft AMO-1 (DSMZ) tumor volume Day 24, Mean” value [4] was 17.90 mm³ and the “Xenograft AMO-1 (DSMZ) tumor volume Day 24, Median” value [4] was 17.90 mm³. The “Xenograft AMO-1 (DSMZ) tumor volume Day 26, Mean” value [5] was 17.97 mm³, the “Xenograft AMO-1 (DSMZ) tumor volume Day 26, Median” value [5] was 17.97 mm³ and the “Xenograft AMO-1 (DSMZ) tumor volume Day 26, individual animals” value [5] was 18 mm³. The “Xenograft AMO-1 (DSMZ) (mm³) Day 28, individual animals” value [6] was 11 mm³, the “Xenograft AMO-1 (DSMZ) Day 28 Mean” value [6] was 11.33 mm³ and the “Xenograft AMO-1 (DSMZ) Day 28 Median” value [6] was 11.33 mm³. The “Xenograft AMO-1 (DSMZ) (mm³) Day 34, individual animal tumor volume” value (25 mg/kg Q7Dx2 IV, SCID-beige female mice, Day 34) was 21 mm³ and 19 mm³, the “Xenograft AMO-1 (DSMZ) (mm³) Day 34 Mean” value [7] was 20.16 mm³ and the “Xenograft AMO-1 (DSMZ) (mm³) Day 34 Median” value [7] was 20.16 mm³. For the same compound, the “Xenograft AMO-1 (DSMZ) (mm³) Day 43, Mean” value [8] was 15.04 mm³, the “Xenograft AMO-1 (DSMZ) (mm³) Day 43, Median” value [8] was 15.04 mm³ and the “Xenograft AMO-1 (DSMZ) (mm³) Day 43, individual animal tumor volume” value [8] was 15 mm³. For the same compound, the “Xenograft AMO-1 (DSMZ) tumor volume Day 50, Mean” value [9] was 15.94 mm³, the “Xenograft AMO-1 (DSMZ) tumor volume Day 50, Median” value [9] was 15.94 mm³ and the “Xenograft AMO-1 (DSMZ) tumor volume Day 50, individual animals” value [9] was 15 mm³ and 17 mm³. For the same compound, the “Xenograft AMO-1 (DSMZ) tumor volume Day 55, individual animals” value (25 mg/kg Q7Dx2 IV, SCID-beige female mice, Day 55) was 13 mm³ and 9 mm³, the “Xenograft AMO-1 (DSMZ) tumor volume Day 55, Mean” value [10] was 10.76 mm³ and the “Xenograft AMO-1 (DSMZ) tumor volume Day 55, Median” value [10] was 10.76 mm³. The “Xenograft AMO-1 (DSMZ) (mm³) Day 62 (individual animals)” value [11] was 198 mm³ and 12 mm³, the “Xenograft AMO-1 (DSMZ) (mm³) Day 62, Mean” value [11] was 104.96 mm³ and the “Xenograft AMO-1 (DSMZ) (mm³) Day 62, Median” value [11] was 104.96 mm³. For the same compound, the “Xenograft AMO-1 (DSMZ) (mm³) Day 64 (individual animals)” value [12] was 249 mm³ and 21 mm³, the “Xenograft AMO-1 (DSMZ) (mm³) Day 64, Mean” value [12] was 134.75 mm³ and the “Xenograft AMO-1 (DSMZ) (mm³) Day 64, Median” value [12] was 134.75 mm³. The “Mortality Observation Day 68, individual animal” value [13] was “EUTV”, the “Xenograft AMO-1 (DSMZ) (mm³) Day 68, individual animal tumor volume” value [13] was 1794 mm³ and 24 mm³ and the “Xenograft AMO-1 (DSMZ) (mm³) Day 68, Mean” value [14] was 908.91 mm³. The “Xenograft AMO-1 (DSMZ) (mm³) Day 68, Median” value [14] was 908.91 mm³, the “Xenograft AMO-1 (DSMZ) tumor volume Day 13, Mean” value [15] was 225.47 mm³ and the “Xenograft AMO-1 (DSMZ) tumor volume Day 13, Median” value [15] was 225.47 mm³. The “Xenograft AMO-1 (DSMZ) tumor volume Day 13, individual animals” value [15] was 233 mm³ and 218 mm³, the “Xenograft AMO-1 (DSMZ) (mm³) Day 40, Mean” value (25 mg/kg Q7Dx2 IV, SCID-beige mice, Day 40, group mean of remaining animals) was 7.70 mm³ and the “Xenograft AMO-1 (DSMZ) (mm³) Day 40, Median” value (25 mg/kg Q7Dx2 IV, SCID-beige mice, Day 40, group median of remaining animals) was 7.70 mm³. For the same compound, the “Xenograft AMO-1 (DSMZ) (mm³) Day 40, individual animal” value (25 mg/kg Q7Dx2 IV, SCID-beige mice, Day 40, tumor volume of single animals) was 8 mm³, the “Xenograft AMO-1 (DSMZ) Day 57, Mean” value (25 mg/kg Q7Dx2 IV, SCID-beige mice, Day 57, group mean of remaining animals) was 13.23 mm³ and the “Xenograft AMO-1 (DSMZ) Day 57, Median” value (25 mg/kg Q7Dx2 IV, SCID-beige mice, Day 57, group median of remaining animals) was 13.23 mm³. The “Xenograft AMO-1 (DSMZ) (mm³) Day 36, Mean” value (25 mg/kg Q7Dx2 IV, group mean of remaining animals, SCID-beige mice, Day 36) was 10.51 mm³, the “Xenograft AMO-1 (DSMZ) (mm³) Day 32 Mean” value (25 mg/kg Q7Dx2 IV, group mean tumor volume, Day 32) was 48.75 mm³ and the “Xenograft AMO-1 (DSMZ) (mm³) Day 36, Median” value (25 mg/kg Q7Dx2 IV, group median of remaining animals, SCID-beige mice, Day 36) was 10.51 mm³. The “Xenograft AMO-1 (DSMZ) (mm³) Day 32 Median” value (25 mg/kg Q7Dx2 IV, group median tumor volume, Day 32) was 48.75 mm³, the “Xenograft AMO-1 (DSMZ) (mm³) Day 32” value (25 mg/kg Q7Dx2 IV, individual animal tumor volume, Day 32) was 94 mm³ and 4 mm³ and the “Xenograft AMO-1 (DSMZ) (mm³) Day 36” value (25 mg/kg Q7Dx2 IV, individual animal tumor volume, SCID-beige mice, Day 36) was 11 mm³.
